Target: T1, FGFR-1 (Homo sapiens, UniProt P11362)
T1 construct: GST; made in house
Test: FGFR-1 TR-FRET biochemical assay
In short: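 In this LANCE time-resolved FRET format, compounds at final 10 μM–0.128 nM (1% DMSO, 1:5 series) were preincubated before enzyme start. Reactions ran for one hour at room temperature with 0.6 uM ATP, 25 nM biotinylated poly GT and 5 nM GST-tagged FGFR1. Inhibition was calculated from the 665/615 nm ratio minus the ATP-free background.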

[1] = 0.6 uM ATP, 5 nM FGFR1-GST, bounds given in nM
[2] = upper bound of the bin 'greater than 100 nM but less than 1 μM' (lower bound in E1)

T1 sequence (P11362 22-822): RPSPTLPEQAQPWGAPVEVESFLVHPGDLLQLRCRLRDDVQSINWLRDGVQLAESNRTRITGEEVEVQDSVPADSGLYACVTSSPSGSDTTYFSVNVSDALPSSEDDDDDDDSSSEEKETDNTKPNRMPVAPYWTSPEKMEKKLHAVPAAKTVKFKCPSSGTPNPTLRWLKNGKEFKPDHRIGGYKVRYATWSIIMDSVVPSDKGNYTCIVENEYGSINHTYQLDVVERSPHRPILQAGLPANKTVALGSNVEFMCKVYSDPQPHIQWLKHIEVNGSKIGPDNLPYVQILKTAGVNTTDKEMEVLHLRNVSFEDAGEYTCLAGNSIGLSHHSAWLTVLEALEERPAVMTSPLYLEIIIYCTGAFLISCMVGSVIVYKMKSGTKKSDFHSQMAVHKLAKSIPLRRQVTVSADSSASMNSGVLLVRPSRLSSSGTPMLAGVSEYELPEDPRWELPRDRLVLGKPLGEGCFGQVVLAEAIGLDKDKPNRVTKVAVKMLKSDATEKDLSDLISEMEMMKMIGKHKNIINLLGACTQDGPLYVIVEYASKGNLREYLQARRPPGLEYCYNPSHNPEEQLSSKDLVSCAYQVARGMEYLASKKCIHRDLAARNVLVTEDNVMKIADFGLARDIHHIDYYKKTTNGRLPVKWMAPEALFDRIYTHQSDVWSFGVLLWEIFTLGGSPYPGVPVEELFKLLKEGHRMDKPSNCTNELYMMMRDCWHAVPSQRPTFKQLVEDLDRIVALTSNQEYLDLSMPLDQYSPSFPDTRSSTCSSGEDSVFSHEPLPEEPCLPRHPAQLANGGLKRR

| SMILES | IC50 [1] [nM] | IC50 [2] [nM] |
| --- | --- | --- |
| Cc1cc(-c2cc(CCCN3CCOCC3)n3ncnc(N)c23)ccc1NC(=O)Nc1cc(C(F)(F)F)ccc1F [Example 221, N-{4-[4-amino-7-(3-morpholin-4-ylpropyl)pyrrolo[2,1-f][1,2,4]triazin-5-yl]-2-methylphenyl}-N′-[2-fluoro-5-(trifluoromethyl)phenyl]urea] | < 10 | – |
| Nc1ncnn2c(CN3CCOCC3)cc(-c3cc(F)c(NC(=O)Nc4cccc(C(F)(F)F)c4F)cc3F)c12 [Example 42, N-{4-[4-amino-7-(morpholin-4-ylmethyl)pyrrolo[2,1-f][1,2,4]triazin-5-yl]-2,5-difluorophenyl}-N′-[2-fluoro-3-(trifluoromethyl)phenyl]urea] | 10 to 100 | – |
| COc1cc(-c2cc(CN3CCOCC3)n3ncnc(N)c23)ccc1NC(=O)Nc1cc(C(F)(F)F)ccn1 [Example 31, N-{4-[4-amino-7-(morpholin-4-ylmethyl)pyrrolo[2,1-f][1,2,4]triazin-5-yl]-2-methoxyphenyl}-N′-[4-(trifluoromethyl)pyridin-2-yl]urea] | 10 to 100 | – |
| CN(C)C(=O)N1CCC(c2cc(-c3ccc(NC(=O)Nc4cc(C(F)(F)F)ccc4F)c(F)c3)c3c(N)ncnn23)C1 (stereo not shown) [Example 203, 3-{4-amino-5-[3-fluoro-4-({[2-fluoro-5-(trifluoromethyl)phenyl]carbamoyl}amino)phenyl]pyrrolo[2,1-f][1,2,4]triazin-7-yl}-N,N-dimethylpyrrolidine-1-carboxamide] | < 10 | – |
| CC(=O)N1CCC(c2cc(-c3ccc(NC(=O)Nc4cc(C(F)(F)F)ccn4)c(F)c3)c3c(N)ncnn23)C1 (stereo not shown) [Example 205, N-{4-[7-(1-acetylpyrrolidin-3-yl)-4-aminopyrrolo[2,1-f][1,2,4]triazin-5-yl]-2-fluorophenyl}-N′-[4-(trifluoromethyl)pyridin-2-yl]urea] | < 10 | – |
| Nc1ncnn2c(CCN3CCOCC3)cc(-c3ccc(NC(=O)Nc4cc(C(F)(F)F)ccc4F)c(F)c3)c12 [Example 212, N-{4-[4-amino-7-(2-morpholin-4-ylethyl)pyrrolo[2,1-f][1,2,4]triazin-5-yl]-2-fluorophenyl}-N′-[2-fluoro-5-(trifluoromethyl)phenyl]urea] | 10 to 100 | – |
| CC(=O)N1CCC(c2cc(-c3ccc(NC(=O)Nc4cc(C(F)(F)F)ccc4F)c(Cl)c3)c3c(N)ncnn23)CC1 [Example 219, N-{4-[7-(1-acetylpiperidin-4-yl)-4-aminopyrrolo[2,1-f][1,2,4]triazin-5-yl]-2-chlorophenyl}-N′-[2-fluoro-5-(trifluoromethyl)phenyl]urea] | < 10 | – |
| Cc1cc(NC(=O)Nc2cc(C(F)(F)F)ccc2F)ccc1-c1cc(CN2CCOCC2)n2ncnc(N)c12 [Example 29, N-{4-[4-amino-7-(morpholin-4-ylmethyl)pyrrolo[2,1-f][1,2,4]triazin-5-yl]-3-methylphenyl}-N′-[2-fluoro-5-(trifluoromethyl)phenyl]urea] | < 10 | – |
| Nc1ncnn2c(CN3CCOCC3)cc(-c3ccc(NC(=O)Nc4cccc(C(F)(F)F)c4)c(C(F)(F)F)c3)c12 [Example 269, N-[4-[4-amino-7-(morpholin-4-ylmethyl)pyrrolo[2,1-f][1,2,4]triazin-5-yl]-2-(trifluoromethyl)phenyl]-N′-[3-(trifluoromethyl)phenyl]urea] | < 10 | – |
| Nc1ncnn2c(C3CCN(C(=O)CN4CCOCC4)CC3)cc(-c3ccc(NC(=O)Nc4cc(C(F)(F)F)ccc4F)c(F)c3)c12 [Example 115, N-(4-4-amino-7-[1-(morpholin-4-ylacetyl)piperidin-4-yl]pyrrolo[2,1-f][1,2,4]triazin-5-yl-2-fluorophenyl)-N′-[2-fluoro-5-(trifluoromethyl)-phenyl]urea] | 10 to 100 | – |
| Nc1ncnn2c(CN3CCOCC3)cc(-c3ccc(NC(=O)Nc4cc(C(F)(F)F)ccc4F)nc3)c12 [Example 9, N-{5-[4-amino-7-(morpholin-4-ylmethyl)pyrrolo[2,1-f][1,2,4]triazin-5-yl]pyridin-2-yl}-N′-[2-fluoro-5-(trifluoromethyl)phenyl]urea] | < 10 | – |
| Nc1ncnn2c(CN3CCNC(=O)C3)cc(-c3cc(F)c(NC(=O)Nc4cc(C(F)(F)F)ccc4F)cc3F)c12 [Example 164, N-(4-{4-amino-7-[(3-oxopiperazin-1-yl)methyl]-pyrrolo [2,1-f][1,2,4]triazin-5-yl}-2,5-difluorophenyl)-N′-[2-fluoro-5-(trifluoromethyl)phenyl]urea] | < 10 | – |
| Nc1ncnn2c(CN3CCCOCC3)cc(-c3ccc(NC(=O)Nc4cc(C(F)(F)F)ccc4F)cc3)c12 [Example 167, N-{4-[4-amino-7-(1,4-oxazepan-4-ylmethyl)pyrrolo[2,1-f][1,2,4]triazin-5-yl]phenyl}-N′-[2-fluoro-5-(trifluoromethyl)phenyl]urea] | < 10 | – |
| Nc1ncnn2c(C(=O)COCCN3CCOCC3)cc(-c3ccc(NC(=O)Nc4cc(C(F)(F)F)ccc4F)c(F)c3)c12 [Example 260, N-(4-{4-amino-7-[(2-morpholin-4-ylethoxy)acetyl]pyrrolo[2,1-f][1,2,4]triazin-5-yl}-2-fluorophenyl)-N′-[2-fluoro-5-(trifluoromethyl)phenyl]urea] | > 100 | < 1000 |
| COc1cc(-c2cc(CN3CCOCC3)n3ncnc(N)c23)ccc1NC(=O)Nc1cc(C(F)(F)F)ccc1F [Example 36, N-{4-[4-amino-7-(morpholin-4-ylmethyl)pyrrolo[2,1-f][1,2,4]triazin-5-yl]-2-methoxyphenyl}-N′-[2-fluoro-5-(trifluoromethyl)phenyl]urea] | 10 to 100 | – |
| COCCN1CCC(c2cc(-c3ccc(NC(=O)Nc4cc(C(F)(F)F)ccc4F)c(Cl)c3)c3c(N)ncnn23)CC1 [Example 241, N-(4-{4-amino-7-[1-(2-methoxyethyl)piperidin-4-yl]pyrrolo[2,1-f][1,2,4]triazin-5-yl}-2-chlorophenyl)-N′-[2-fluoro-5-(trifluoromethyl)phenyl]urea] | < 10 | – |
| Nc1ncnn2c(CN3CCNCC3)cc(-c3ccc(NC(=O)Nc4cc(C(F)(F)F)ccc4F)cc3)c12 [Example 81, N-4-[4-amino-7-(piperazin-1-ylmethyl)pyrrolo[2,1-f][1,2,4]triazin-5-yl]phenyl-N′-[2-fluoro-5-(trifluoromethyl)phenyl]urea] | < 10 | – |
| Nc1ncnn2c(C3CCN(CCO)CC3)cc(-c3ccc(NC(=O)Nc4cc(C(F)(F)F)ccc4F)c(F)c3)c12 [Example 116, N-(4-4-amino-7-[1-(2-hydroxyethyl)piperidin-4-yl]pyrrolo[2,1-f][1,2,4]triazin-5-yl-2-fluorophenyl)-N′-[2-fluoro-5-(trifluoromethyl)phenyl]urea] | < 10 | – |
| Nc1ncnn2c(C3CCNC3)cc(-c3ccc(NC(=O)Nc4cc(C(F)(F)F)ccc4F)cc3)c12 (stereo not shown) [Example 206, 1-[4-(4-amino-7-pyrrolidin-3-ylpyrrolo[2,1-f][1,2,4]triazin-5-yl)phenyl]-3-[2-fluoro-5-(trifluoromethyl)phenyl]urea] | < 10 | – |
| Nc1ncnn2c(CCCN3CCOCC3)cc(-c3ccc(NC(=O)Nc4cc(C(F)(F)F)ccc4F)cc3)c12 [Example 108, N-{4-[4-amino-7-(3-morpholin-4-ylpropyl)pyrrolo[2,1-f][1,2,4]triazin-5-yl]phenyl}-N′-[2-fluoro-5-(trifluoromethyl)phenyl]urea] | < 10 | – |
| CC(C)(C)OC(=O)N1CCC(c2cc(-c3ccc(NC(=O)Nc4cc(C(F)(F)F)ccc4F)c(F)c3)c3c(N)ncnn23)C1 (stereo not shown) [Example 198, tert-butyl 3-{4-amino-5-[3-fluoro-4-({[2-fluoro-5-(trifluoromethyl)phenyl]carbamoyl}amino)phenyl]pyrrolo[2,1-f][1,2,4]triazin-7-yl}pyrrolidine-1-carboxylate] | > 100 | < 1000 |
| Nc1ncnn2c(CN3CCOCC3)cc(-c3ccc(NC(=O)Nc4cc(C(F)(F)F)ccc4Cl)c(F)c3)c12 [Example 65, N-4-[4-amino-7-(morpholin-4-ylmethyl)pyrrolo[2,1-f][1,2,4]triazin-5-yl]-2-fluorophenyl-N′-[2-chloro-5-(trifluoromethyl)phenyl]urea] | < 10 | – |
| Nc1ncnn2c(CN3CCNC(=O)C3)cc(-c3ccc(NC(=O)Nc4cc(C(F)(F)F)ccc4F)cc3)c12 [Example 39, N-(4-{4-amino-7-[(3-oxopiperazin-1-yl)methyl]pyrrolo[2,1-f][1,2,4]triazin-5-yl}phenyl)-N′-[2-fluoro-5-(trifluoromethyl)phenyl]urea] | < 10 | – |
| Cc1cccc(NC(=O)Nc2ccc(-c3cc(CN4CCOCC4)n4ncnc(N)c34)cc2)n1 [Example 57, N-{4-[4-amino-7-(morpholin-4-ylmethyl)pyrrolo[2,1-f][1,2,4]-triazin-5-yl]phenyl}-N′-(6-methylpyridin-2-yl)urea] | > 100 | < 1000 |
| CCc1cccc(NC(=O)Nc2ccc(-c3cc(CN4CCS(=O)(=O)CC4)n4ncnc(N)c34)cc2F)c1 [Example 75, N-(4-{4-amino-7-[(1,1-dioxidothiomorpholin-4-yl)methyl]pyrrolo[2,1-f][1,2,4]triazin-5-yl}-2-fluorophenyl)-N′-(3-ethylphenyl)urea] | < 10 | – |
| Nc1ncnn2c(C3CCN(C(=O)C(F)(F)F)CC3)cc(-c3ccc(NC(=O)Nc4cc(C(F)(F)F)ccc4F)c(F)c3)c12 [Example 112, N-(4-4-amino-7-[1-(trifluoroacetyl)piperidin-4-yl]pyrrolo[2,1-f][1,2,4]triazin-5-yl-2-fluorophenyl)-N′-[2-fluoro-5-(trifluoromethyl)-phenyl]urea] | > 100 | < 1000 |
| CNC(=O)N1CCC(c2cc(-c3ccc(NC(=O)Nc4cc(C(F)(F)F)ccc4F)c(F)c3)c3c(N)ncnn23)CC1 [Example 209, 4-{4-amino-5-[3-fluoro-4-({[2-fluoro-5-(trifluoromethyl)phenyl]carbamoyl}amino)phenyl]pyrrolo[2,1-f][1,2,4]triazin-7-yl}-N-methylpiperidine-1-carboxamide] | 10 to 100 | – |
